These results are taken from US4975433A, “Aminomethyl derivatives of biologically active substances and enhanced delivery thereof across topical membranes” (priority 1989, dated 1990).

The conditions of data set [1]: cited from earlier work.
For data set [2] the following is noted: skins leached 120 hours, no methanol wash.
Description: After this last sampling of the receptor phase (amount left in skin), the receptor phase was again changed. […] The cumulative amount of theophylline in the receptor phase was calculated as described above. This phase of the diffusion cell studies is termed the second application.
Several control studies were also performed. […] This was the baseline for the second application. […] Theophylline in PG was then applied to assess the effect of the methanol wash (used to remove the remaining donor phase from the first application) on the skin's permeability. […] The receptor phase was changed and a suspension of Th in PG was added as before.
The slopes for each phase of the plotted lines were obtained by linear regression analysis (r>0.990); the slopes were then divided by the surface area of the diffusion cells (4.9 cm^2) to obtain a value for flux (J) in mg/cm^2 /h. The reported fluxes are the average flux of the three diffusion cells.
A short description of data set [3]: delivery of theophylline, previous study of Sloan et al. As to conditions: from flux of previous study.
The conditions of data set [4]: phosphate buffer, pH 7.1.
Data set [5] in a line: flux of theophylline in PG after first application of 5-IDC or prodrug (second application). The settings on record: for X-intercept / Flux of theophylline from PG after first application: first application in IPM; for Flux of theophylline from PG after first application: Th/PG 0.4 M, ±SD. The class given is in vitro ADME, hairless mice.
Description: A suspension of theophylline in PG (Th/PG; 0.5 ml, 0.4M) was then applied to each diffusion cell. […] This phase of the diffusion cell experiment is labelled the second application.
The slopes for each phase of the plotted lines were obtained by linear regression analysis; the slopes were then divided by the surface area of the diffusion cells (4.9 cm^2) to obtain a value for flux (J) in mg/cm^2 /h. The reported fluxes are the average flux for the three cells.
Data set [6] can be described thus: lipid and aqueous solubilities of 5-IDC and its prodrugs. The class given is physicochemical. As to conditions: for Solubility, IPM / solubility at 48 h: isopropyl myristate; for solubility: pH 5.5, water, apparent; for solubility at 48 h: organic solvent or mixture, read-out: Solubility, IPM. As to the method:
The approximate aqueous solubilities were determined by the addition of 100 mg of solid to 1 ml distilled water (pH 5.5). Water was added until all the solid dissolved.
The lipid solubilities of 5-iodo-2'-deoxycytidine and its N-Mannich base prodrugs were determined in isopropyl myristate. Three suspensions of the drug or prodrugs were stirred for 48 hours and then filtered. The filtrates were then diluted with either methanol, for the parent drug or dry acetonitrile, for the N-Mannich base prodrugs. The concentration of compound in solution was determined by monitoring the UV absorption at 294 nm (ε=5.79×10^3 1/mole) for 5-IDC, 333 nm (ε=2.46×10^4) for the formamidine derivative and 296 nm for the derivatives. The aqueous solubilities were obtained as described above.

Data set [7] can be described thus: solubility of 5-iodo-2'-deoxycytidine in various vehicles. The class given is physicochemical. As to conditions: for solubility: organic solvent or mixture.
The nature of data set [8]: hydrolysis of 5-IDC derivatives in pH 7.1 buffer. The data set is classed as physicochemical. As to conditions: 24°, read-out: half-life (t1/2) of hydrolysis. As to the method: The hydrolysis of the prodrugs in pH 7.1 buffer (0.05M,=0.15) was monitored by UV spectroscopy at 294 nm, by measuring the appearance of 5-IDC. A plot of log (At -A.infin.) versus time was linear so first-order reaction kinetics were assumed. Each hydrolysis was performed in triplicate at a constant temperature of 24.0°±0.1° and the half-lives and rates of hydrolysis were obtained using the Guggenheim method. Stock solutions of the prodrugs were made in dry acetonitrile, and 0.1 ml of the solution was added to 3 ml of buffer in a cuvette.

Data set [9] is described as follows: hydrolysis / stability of adenine and cytosine adducts followed by UV (Example 1). The class given is physicochemical. The settings on record: water, dilute aqueous solution, about 1×10^-4 mole/l, read-out: t1/2 of hydrolysis (converted). The text has this: The methanol UV spectra of the adducts of cytosine and adenine were stable for up to 2 hr. The water UV spectrum of the mono-adduct of adenine 1b was essentially identical with adenine itself under the same conditions. […] The rates of hydrolysis of three of the adducts (1d, 1e and 2d) were followed by UV at about 1×10^-4 mole/1 by following the decrease in intensity of their respective UV max with time. Spectra were monitored until stable spectra were produced which in all cases were essentially identical with the parent purine or pyrimidine. Plots of At-At.infin. versus time were used to determine t 1/2. The hydrolyses of the adducts were also followed by ^1 H NMR spectroscopy. Solutions (DMSO-d6) of the adducts at about 30 mg/ml, were diluted with D2 O in a dropwise fashion until a 1:1 ratio of the two solvents was reached. Integrations (5 times) of the spectra were taken after each addition of D2 O. Comparison of the average of the integrations of the N--CH2 --N absorptions and the integrations of the C2 --H, C8 --H, C5 --H or C6 --H absorptions was used to quantitate the amount of decomposition.

The next data set can be described thus: physchem. The settings on record: organic solvent or mixture.
Data set [10] in a line: lipid and aqueous solubilities of 5-FC and its derivatives. The data set is classed as physicochemical. The settings on record: for solubility at 48 h: isopropyl myristate, organic solvent or mixture, read-out: Solubility, IPM.
For data set [11] the following is noted: water, equilibrated three hours, 180 min; cited from earlier work.
A short description of data set [12]: solubilities of prodrugs and parent drugs in selected solvents (Example 8). As to conditions: Solubility, suspensions sonicated for 3 hr.
Data set [13] in a line: delivery of 5-FU, previous data of Mollgaard et al. The class given is in vitro ADME, human. The procedure: The diffusion cell data previously reported for the delivery of 5-FU from PG (Mollgaard et al, supra), were analyzed and a flux of 7.8×10^-4 mg/cm^2.hr with a lag time of 17 hr was calculated. […] […]. […] Thus, the present study of delivery of 5-FU appears to be consistent with the observations of Mollgaard et al, supra.
. When the data for the diffusion of the best prodrug of 5-FU (1-butyryloxymethylderivative) described in Mollgaard et al, supra, were used to calculate a flux for that prodrug, a flux of 17.2×10^-4 mg/cm^2.hr was obtained. […]

For data set [14] the following is noted: cited from earlier work. The source holds these as a separate data set.
For data set [15] the following is noted: cited from earlier work. This is another data set of the same source.

Values after ≈ are worked out from the molar mass of the structure shown. Values joined by “and” are separate entries in the source; they are usually repeats but may differ in a detail not shown here. Equal entries are not always repeated. Where two headings read alike, the source gives them in different places. Marks after values point to notes of the source that are not given here. Where only a bound is given, the exact number is not on record here.

As to `Cn1c(=O)c2[nH]cnc2n(C)c1=O` [I, Theophylline], the flux in [1] (not told) is given as 1.72±0.13×10^-2 mg/cm^2.hr. The “flux for Th/PG, baseline” value in [2] is reported as 1.41±0.09×10^-3 mg/cm2 /h.
As to `Cn1c(=O)c2c(ncn2CO)n(C)c1=O` [7-(hydroxymethyl)theophylline], in data set [3], the “times more effective than theophylline in delivering theophylline” value is on record as “about 6.5 times”. For the same molecule, in [1] (not told), the flux is recorded as 11.1×10^-2 mg/cm^2.hr.
Consider `CCN(CC)CNc1ccn(CN(CC)CC)c(=O)n1` [Cytosine (Et), Bis-N^4,1-(diethylamino)methylcytosine], for which the “Half-life of hydrolysis, cytosine derivatives” value in [4] is 0.26(0.00) min.
Take `Nc1nc(=O)n([C@H]2C[C@H](O)[C@@H](CO)O2)cc1I` [Compound 5-IDC, 5-iodo-2'-deoxycytidine]: in data set [5] (after 5-IDC), the “increase of flux of theophylline from PG” value was 1.3 times. In [5], the X-intercept amounted to 0.6 h. Moreover, the “Flux of theophylline from PG after first application” value in data set [5] is reported as 246 (17) mg/cm^2 /h × 10^3. For the same molecule, the “Solubility, IPM” value in data set [6] is reported as 0 M(× ^5); in data set [6] (±SD), 0 mg/ml(× 10^2). The solubility in [6] was < 1000 µg/mL and < 2800 µM; in data set [7] (1-octanol, read-out: Solubility of 5-IDC, mole fraction) it was 0.96 mM; in [7] (1-propanol, read-out: Solubility of 5-IDC, mole fraction), 6.09 mM; in data set [7] (eg, read-out: Solubility of 5-IDC, mole fraction), 89.2 mM; in data set [7] (ethylene glycol, EG, ±SD, read-out: Solubility of 5-IDC) it was 31.5 mg/mL; in data set [7] (formamide, For, ±SD, read-out: Solubility of 5-IDC) it was 56.9 mg/mL. Further, the solubility was 161 mM in [7] (formamide, read-out: Solubility of 5-IDC, mole fraction); 0.34 mg/mL in [7] (1-octanol, ±SD, read-out: Solubility of 5-IDC); 2.15 mg/mL in data set [7] (1-propanol, ±SD, read-out: Solubility of 5-IDC); 55.7 mM in data set [7] (pg, read-out: Solubility of 5-IDC, mole fraction); 19.7 mg/mL in data set [7] (propylene glycol, PG, ±SD, read-out: Solubility of 5-IDC). In addition, the “Solubility of 5-IDC, mole fraction” value in [7] (IPM) is 0 mole fraction (× 10^3). Also, the “X-intercept, initial phase” value (IPM) was determined as 5.0 h. The “X-intercept, steady-state” value (IPM) is given as 14.0 h. Further, the “duration of initial phase” value (IPM) came out at 19 h. In addition, the “duration of steady-state delivery” value (IPM) turned out to be 11 h. Also, the “conversion of 5-IDC to 5-IDU” value (diffusion cells, HPLC) was “no conversion of 5-IDC to 5IDU was detected”.
`O=c1nc(NCN2CCCCC2)c(I)cn1[C@H]1C[C@H](O)[C@@H](CO)O1` [XXIIa, N^4-(1"-piperidinyl)methyl-5-iodo-2'-deoxycytidine hydrate]: in data set [5], the X-intercept was found to be 1.0 h and the “Flux of theophylline from PG after first application” value was 192 (38) mg/cm^2 /h × 10^3. The “effect on flux of theophylline” value in data set [5] (vs IPM) is on record as “Not significantly different from flux after first application”. In data set [6], the solubility at 48 h came to 0.062 mM; the solubility is 100000 µg/mL and 222000 µM. Further, the solubility at 48 h in data set [6] (±SD) was determined as 0.028 mg/mL.
Consider `O=c1nc(NCN2CCOCC2)c(I)cn1[C@H]1C[C@H](O)[C@@H](CO)O1` [XXIIIb, N^4-(1"-morpholinyl)methyl-5-iodo-2'-deoxycytidine hydrate], for which, in data set [6], the solubility at 48 h stood at 0.029 mM; the solubility was 20000 µg/mL and 44000 µM. For the same molecule, the solubility at 48 h in data set [6] (±SD) amounted to 0.013 mg/mL. For the same molecule, the half-life in data set [8] was 12.8 ± 0.6 min.
For `O=c1nc(NCN2CCOCC2)ccn1CN1CCOCC1` [Compound 2d, Bis-N^4,1-(4'-morpholinyl)methylcytosine], the half-life at 100 µM in data set [9] is about 180 min.
Turning to `Nc1nc(=O)[nH]cc1F` [Compound 5-FC, 5-fluorocytosine], the solubility amounted to 0.42 mg/mL (≈ 3.25 mM) in “physchem” (1-octanol); 3.52 mg/mL (≈ 27.3 mM) in “physchem” (dmf); 20 mg/mL (≈ 155 mM) in “physchem” (ethylene glycol); 17.5 mg/mL (≈ 135 mM) in the data set “physchem” (ethylene glycol:formamide (1:1)); 17.9 mg/mL (≈ 139 mM) in the data set “physchem” (ethylene glycol:formamide (4:1)); 13.7 mg/mL (≈ 106 mM) in the data set “physchem” (formamide). For the same molecule, the solubility was 0.0045 mg/mL (≈ 0.0349 mM) in “physchem” (ipm); 10.8 mg/mL (≈ 83.7 mM) in the data set “physchem” (pg); 7000 µg/mL and 50000 µM in data set [10] (distilled water (pH 5.5), approximate, decomposing). The solubility at 48 h in [10] was 0.039 mM; in [10] (±SD), 0.005 mg/mL. Further, the “aqueous solubility, literature value” in data set [11] is 120 mM (≈ 15.5 mg/mL).
Consider `c1nc(NCN2CCOCC2)c2ncn(CN3CCOCC3)c2n1` [Compound 1d, Bis-N^6,9-(4'-morpholinyl)methyladenine], for which, in [9], the half-life at 100 µM was about 30 min.
Consider `CCCC(=O)OCn1cnc2c1c(=O)n(C)c(=O)n2C` [7-butyryloxymethyl)theophylline], for which the “times more effective than theophylline in delivering theophylline” value in [3] is 4.2 times. Also, the flux in data set [1] (previous study (Sloan et al), IPM) is on record as 7.25×10^-2 mg/cm^2.hr.
Consider `O=c1[nH]cc(F)c(=O)[nH]1` [VII, 5-Fluorouracil], for which the solubility in data set [12] (isopropyl myristate, organic solvent or mixture, IPM) was 0.0044 mg/mL (≈ 0.0338 mM); in [12] (propylene glycol, organic solvent or mixture, PG), 15.1 mg/mL (≈ 116 mM); in [12] (water), 26.2 mg/mL (≈ 201 mM). The “theoretical 24 hr value for 5-FU diffused” value in data set [13] (PG, 24 hr, 4.9 cm^2, calculated from literature flux and lag) is 0.015 mg. The pKa in data set [14] is 13.0. In addition, in data set [15] (PG, calculated from literature data (Mollgaard et al)), the lag time was 17 h.
Regarding `c1nc(NCN2CCCCC2)c2ncn(CN3CCCCC3)c2n1` [Compound 1e, Bis-N^6,9-(1'-piperidinyl)methyladenine], the half-life at 100 µM in data set [9] was about 5 min.
As for `O=c1nc(NCN2CCCCC2)c(I)cn1[C@H]1C[C@H](O)[C@@H](CO)O1` [XXIIb, N^4-(1"-piperidinyl)methyl-5-iodo-2'-deoxycytidine hydrate], in data set [6] (±SD, 2880 min, hydrate), the “Solubility, IPM” value is recorded as 1.6(0.5) mg/ml(× 10^2). Further, the half-life in data set [8] was 0.89 ± 0.06 min.
As to `CCCC(=O)OCn1cc(F)c(=O)[nH]c1=O` [1-butyryloxymethylderivative], the “times better than 5-FU in delivering 5-FU” value in data set [13] (from literature flux) is reported as 2.2 times. Also, the flux in [15] (not told) is 17.2×10^-4 mg/cm^2.hr.
